Several values for one entry are separate records, joined by “and”; a condition that tells them apart may be missing. Equal entries are not always repeated. Activity calls are given as the source filed them.
Legend:
[1] = Trypanosoma cruzi growth suppression in host cells – NIH3T3 host cells, beta-gal luminescence, confirmation (AID 2044); assay type: functional, cell-based;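 note: intracellular parasites grown in NIH/3T3 mouse fibroblasts as host cells; luminescent beta-galactosidase reporter signal from transgenic T. cruzi replicating inside host cells; inhibitors lower the luminescence signal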
[2] = NIH3T3 cell viability loss – ATP luminescence, mouse fibroblasts, counter-screen, dose response (AID 2010); assay type: functional, cell-based;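 note: cells exposed to compound for about 90 hours before reading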
Cytochrome P450 1A2 = molecular target: T1, Cytochrome P450 1A2 (Homo sapiens, UniProt P05177);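 note: PubChem cytochrome P450 panel assay, CYP1A2 panel member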
T1 sequence (P05177 whole entry): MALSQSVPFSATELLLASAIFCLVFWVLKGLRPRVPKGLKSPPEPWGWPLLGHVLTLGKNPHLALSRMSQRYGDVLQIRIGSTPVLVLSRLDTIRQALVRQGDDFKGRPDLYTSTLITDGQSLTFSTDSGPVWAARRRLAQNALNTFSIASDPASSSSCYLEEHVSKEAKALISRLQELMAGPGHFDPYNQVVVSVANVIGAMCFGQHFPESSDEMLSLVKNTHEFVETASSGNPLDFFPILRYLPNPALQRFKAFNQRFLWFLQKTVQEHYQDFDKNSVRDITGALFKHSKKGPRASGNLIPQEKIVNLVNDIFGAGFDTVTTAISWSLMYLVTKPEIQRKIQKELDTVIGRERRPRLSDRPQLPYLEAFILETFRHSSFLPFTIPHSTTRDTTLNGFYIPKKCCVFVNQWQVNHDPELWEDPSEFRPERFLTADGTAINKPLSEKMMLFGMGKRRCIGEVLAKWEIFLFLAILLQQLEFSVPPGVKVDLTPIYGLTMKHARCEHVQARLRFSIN

Cytochrome P450 3A4 = Cytochrome P450 3A4 (Homo sapiens, UniProt P08684);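 note: CYP3A4 tested as one member of a cytochrome P450 panel screen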
Sequence of Cytochrome P450 3A4 (P08684 whole entry): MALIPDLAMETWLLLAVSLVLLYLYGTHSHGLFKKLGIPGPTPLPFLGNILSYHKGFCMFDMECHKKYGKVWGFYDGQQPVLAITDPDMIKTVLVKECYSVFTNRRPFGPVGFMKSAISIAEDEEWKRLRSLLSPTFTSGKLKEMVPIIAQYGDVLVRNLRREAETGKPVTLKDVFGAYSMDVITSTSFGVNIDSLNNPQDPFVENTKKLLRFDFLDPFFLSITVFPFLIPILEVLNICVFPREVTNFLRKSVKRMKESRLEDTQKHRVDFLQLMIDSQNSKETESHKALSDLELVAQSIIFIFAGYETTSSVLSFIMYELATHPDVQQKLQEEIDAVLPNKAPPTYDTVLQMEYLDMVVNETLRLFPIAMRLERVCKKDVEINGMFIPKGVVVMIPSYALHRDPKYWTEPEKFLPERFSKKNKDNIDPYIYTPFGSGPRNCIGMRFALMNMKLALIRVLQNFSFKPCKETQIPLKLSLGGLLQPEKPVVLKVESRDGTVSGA

Cytochrome P450 2C9 = Cytochrome P450 2C9 (Homo sapiens, UniProt P11712)
Sequence of Cytochrome P450 2C9 (P11712 whole entry): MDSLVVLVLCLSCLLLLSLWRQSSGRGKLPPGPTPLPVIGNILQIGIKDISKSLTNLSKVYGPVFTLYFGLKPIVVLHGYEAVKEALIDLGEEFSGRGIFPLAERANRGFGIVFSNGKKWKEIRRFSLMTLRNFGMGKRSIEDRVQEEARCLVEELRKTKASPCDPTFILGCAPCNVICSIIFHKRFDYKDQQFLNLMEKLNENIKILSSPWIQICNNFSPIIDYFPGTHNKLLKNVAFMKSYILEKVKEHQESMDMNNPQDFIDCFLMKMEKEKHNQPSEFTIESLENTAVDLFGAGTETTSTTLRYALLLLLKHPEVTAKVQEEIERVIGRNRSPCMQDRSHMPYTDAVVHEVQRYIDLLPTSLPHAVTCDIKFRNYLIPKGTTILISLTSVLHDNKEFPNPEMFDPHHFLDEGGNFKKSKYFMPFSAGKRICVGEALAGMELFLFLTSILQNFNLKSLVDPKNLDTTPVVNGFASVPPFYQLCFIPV

[3] = system: Streptococcus sp. 'group A'; test: Streptococcus pyogenes SK(-)GAS viability under kanamycin – luminescence, BacTiterGlo, confirmation, counter-screen for streptokinase expression inhibitor project, dose response (AID 1900); assay type: functional, organism-based
Streptococcus = test: GAS UMAA2166 growth inhibition – luminescence, BacTiterGlo, counter-screen for streptokinase expression inhibitor project, dose response (AID 1915); assay type: functional, organism-based;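 note: potency for reduction of bacterial viability or growth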
[4] = molecular target: T2, Corticotropin-releasing factor receptor 2/Corticotropin-releasing factor-binding protein (Homo sapiens, UniProt P24387+Q13324); test: activators of CRF receptor 2 with binding protein – uHTS hits, confirmation (AID 602473); assay type: functional; conditions: read-out: EC50_Mean
T2 sequence (Q13324 whole entry): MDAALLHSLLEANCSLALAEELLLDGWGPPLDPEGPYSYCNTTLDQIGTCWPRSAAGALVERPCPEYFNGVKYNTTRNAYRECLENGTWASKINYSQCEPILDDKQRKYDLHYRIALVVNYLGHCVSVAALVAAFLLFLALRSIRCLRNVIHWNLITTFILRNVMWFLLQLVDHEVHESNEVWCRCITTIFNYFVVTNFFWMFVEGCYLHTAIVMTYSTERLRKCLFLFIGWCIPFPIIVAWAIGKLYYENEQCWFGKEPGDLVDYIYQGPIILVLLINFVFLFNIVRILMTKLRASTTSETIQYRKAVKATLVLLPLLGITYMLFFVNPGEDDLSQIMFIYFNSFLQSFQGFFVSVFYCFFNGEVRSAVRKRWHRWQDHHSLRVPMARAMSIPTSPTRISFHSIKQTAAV
T2 sequence (P24387 whole entry): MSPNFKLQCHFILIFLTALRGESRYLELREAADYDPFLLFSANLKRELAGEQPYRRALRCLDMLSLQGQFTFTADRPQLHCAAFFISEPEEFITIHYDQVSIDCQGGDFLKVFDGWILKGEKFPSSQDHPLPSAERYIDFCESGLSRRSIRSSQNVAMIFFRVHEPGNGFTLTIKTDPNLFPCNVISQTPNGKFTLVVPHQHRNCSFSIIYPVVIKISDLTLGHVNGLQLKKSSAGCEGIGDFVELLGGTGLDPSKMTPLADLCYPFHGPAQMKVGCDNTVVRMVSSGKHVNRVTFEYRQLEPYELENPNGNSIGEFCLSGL

CC(C)N(CCNC(=O)c1nn(Cc2ccccc2)c(=O)c2ccccc12)C(C)C
EC50 [1]: 1.46 µM (active)
EC50 [2]: > 60 µM (not active)

COc1ccccc1CN1CC[C@@]2(CCCN(C(=O)c3ccco3)C2)C1
AC50 (Cytochrome P450 1A2): 39.8 µM (inconclusive)

CC(C)(C)NS(=O)(=O)c1ccc(NS(=O)(=O)c2ccc(F)cc2)cc1
AC50 (Cytochrome P450 3A4): 15.8 µM (inconclusive)

CCOc1cc(-c2nc(-c3cc([N+](=O)[O-])ccc3C)c(-c3ccccc3)[nH]2)ccc1O
EC50 [1]: 2.7 µM (active)
EC50 [2]: > 60 µM (inconclusive)

S=C(Nc1ccc2c(c1)Cc1ccccc1-2)Nc1ccc2c(c1)Cc1ccccc1-2
AC50 (Cytochrome P450 3A4): 3.98 µM (inconclusive)

C/C(=N/NC(=O)c1ccc(C)s1)c1cccc(NC(=O)COc2ccc(Cl)cc2C)c1
AC50 (Cytochrome P450 3A4): 1.12 µM (inconclusive)

O=C(c1ccc2c(=O)n(CC3CCCO3)c(=S)[nH]c2c1)N1CCN(c2ccccc2)CC1 (stereo not given)
AC50 (Cytochrome P450 3A4): 7.08 µM (inconclusive)
AC50 (Cytochrome P450 2C9): 7.94 µM (inconclusive)

Cc1ccc(/N=N\c2ccc(N)cc2C)c(S(N)(=O)=O)c1
AC50 (Cytochrome P450 3A4): 3.98 µM (inconclusive)

CCN(CC)P(=O)(Nc1ccc(SC(F)F)cc1)c1ccc(N(C)C)cc1NC(=O)c1ccco1 (stereo not given)
EC50 [1]: 1.99 µM (active)
EC50 [2]: > 60 µM (not active)

Cc1noc(N)c1C(=O)Nc1ccc(F)cc1
AC50 (Cytochrome P450 2C9): 3.98 µM (inconclusive)

CCOC(=O)N1CCN(C(=O)CC(C(=O)N2CCc3ccccc32)n2ccnc2)CC1 (stereo not given)
EC50 [1]: 1.82 µM (active)
EC50 [2]: > 60 µM (not active)

COc1ccc(Br)cc1S(=O)(=O)Nc1nc[nH]n1
EC50 [3]: > 150 µM (not active)
EC50 (Streptococcus): > 150 µM (not active)

N[C@H](CCCP(=O)(O)O)C(=O)O
AC50 (Cytochrome P450 1A2): 25.1 µM (inconclusive) and 31.6 µM (inconclusive)

O=C(Nc1ccccc1)Nc1ccccc1-n1ccnc1
EC50 [1]: 2.53 µM (active)
EC50 [2]: > 60 µM (not active)

CCc1ccc(OCCOCC(O)CNC(C)(C)C)cc1 (stereo not given)
EC50 [4]: > 53 µM (inactive)

Cn1cnc([N+](=O)[O-])c1Sc1nc(N)nc2c1ncn2Cc1ccccc1
AC50 (Cytochrome P450 1A2): 3.16 µM (inconclusive)

O=C(c1cc(-c2ccccc2)nc2ccccc12)N1CCC2(CC1)OCCO2
AC50 (Cytochrome P450 3A4): 25.1 µM (inconclusive)

O=C(O)CCC(=O)N1CCN(c2ccccn2)CC1
AC50 (Cytochrome P450 3A4): 3.55 µM (inconclusive)
AC50 (Cytochrome P450 2C9): 0.891 µM (inconclusive)

CCCCN1C(=O)NC(=O)/C(=C(/C)NCCCN(CC)CC)C1=O
EC50 [1]: 1.66 µM (active)
EC50 [2]: > 60 µM (not active)

Cc1noc(C)c1-c1ccc2ncnc(NC3CCNCC3)c2c1
AC50 (Cytochrome P450 1A2): 31.6 µM (inconclusive)

Cn1ncc(C#N)c1NC(=O)C1CC(c2ccc(Cl)cc2)=NO1 (stereo not given)
AC50 (Cytochrome P450 1A2): 31.6 µM (inconclusive)
AC50 (Cytochrome P450 3A4): 20 µM (inconclusive)
AC50 (Cytochrome P450 2C9): 12.6 µM (inconclusive)

CC(C)(C)C(=O)Nc1sc2c(c1C#N)CCN(Cc1ccccc1)C2
EC50 [4]: 10.2 µM (active)

Cc1onc(C(=O)/C=C/N(C)C)c1C(=O)Nc1nccs1
AC50 (Cytochrome P450 1A2): 0.631 µM (inconclusive)

NNS(=O)(=O)c1cc(C(=O)O)cc(C(=O)O)c1
AC50 (Cytochrome P450 1A2): 0.001 µM (inconclusive)

O=C(NCCCN1CCc2ccccc2C1)C1CCN(S(=O)(=O)N2CCCC2)CC1
AC50 (Cytochrome P450 3A4): 20 µM (inconclusive)

COc1ccc(OC)c(Nc2nc(-c3sc(NC(=O)c4ccccc4)nc3C)cs2)c1
AC50 (Cytochrome P450 3A4): 28.2 µM (inconclusive)

CC(C(=O)Nc1ccccc1C(=O)O)n1c(C(F)(F)F)nc2ccccc21 (stereo not given)
EC50 [1]: 9.95 µM (active)
EC50 [2]: > 60 µM (inconclusive)

N#Cc1c(Nc2cccc(F)c2)sc2c(O)cc(O)nc12
EC50 [3]: 1.19 µM (active)
EC50 (Streptococcus): 5.71 µM (active)

CS(=O)(=O)N1CC(C(=O)NC2CC2)Oc2ccc(Cl)cc21 (stereo not given)
AC50 (Cytochrome P450 3A4): 25.1 µM (inconclusive)
AC50 (Cytochrome P450 2C9): 10 µM (inconclusive)

Cc1ccc2nc(NC(=O)C3CCN(S(=O)(=O)c4cc([N+](=O)[O-])ccc4Cl)CC3)sc2c1
EC50 [1]: 0.528 µM (active)
EC50 [2]: > 60 µM (not active)

From ChEMBL document CHEMBL1201862, “PubChem BioAssay data set” (2004)
